Experiments:
[1] = tested on: HO-1^+ pancreatic macrophages; experiment: Staining of pancreatic macrophages (HO-1, F4/80) after hemin; assay type: in vivo, mice; conditions: intraperitoneal hemin
Description: FIG. 3: Hemin increases HO-1^+ pancreatic macrophages in association with MCP-1 and MIP-1α induction. (A) Pancreas from CDD-fed mice was triple-stained using antibodies to HO-1 (a), the macrophage marker F4/80 (b), and the granulocyte marker Gr-1 (c). Scale bar in panel d=20 μM. (B) Mice were treated intraperitoneally with hemin (H) or vehicle (V) once (H×1) or 3×(H×3, V×3) during a one week period, followed by feeding with CDD or regular chow for 3 d. Pancreata were collected followed by staining and counting F4/80^+ macrophages in 10 randomly selected high power fields (HPF). The mean±SD (3 mice/group) and p-value for the indicated comparisons are shown. […]
Animal procedures. […] Immunofluorescence staining was performed as described (29) and images were analyzed using confocal microscopy. Total tissue lysates were prepared by homogenization in Laemmli sample buffer and analyzed by SDS-PAGE followed by transfer to membranes for blotting and protein visualization by enhanced chemiluminescence. Trypsin activity was determined using a fluorimetric assay and the substrate Boc-Gln-Ala-Arg-MCA (Peptides International Inc.; Louisville, Ky.), and comparison to a standard curve generated with purified trypsin as described. […] Lung injury after caerulein administration was assessed as previously described, based on neutrophilic infiltration, pulmonary edema, alveolar distension and collapse. […]

CDD-induced pancreatitis = experiment: Choline deficient diet (CDD)-induced pancreatitis after hemin pretreatment
Description: (D-F) Mice were injected with saline, hemin, or vehicle (8 mice/group)3×(arrows) followed by feeding with CDD for 3 d then harvesting of the pancreata.
Balb/c mice were housed under pathogen-free conditions and utilized in two established models of pancreatitis. […] For the pancreatitis induced by feeding a choline/methionine-deficient diet (CDD), young female mice (15-19 g) were fasted then fed CDD (Harlan Teklad; Madison Wis.) supplemented with 0.5% DL-ethionine (Sigma; St. Louis, Mo.) or normal chow (control group) for 3 d, then switched to normal diet for 1, 2 or 5 d.
Animal procedures. Mice were euthanized by CO2 inhalation then pancreata and lungs were rapidly removed, divided into 3-4 pieces, and blood was collected by intracardiac puncture. Individual lung and pancreas fragments were immediately fixed in 10% formalin, embedded in OCT (Miles; Elkhart, Ind.) or snap-frozen in liquid N2 for subsequent protein, enzyme, and RNA analysis. […] Fixed tissues were sectioned then stained using hematoxylin and eosin (performed by Histo-tec Laboratory; Hayward, Calif.).

For Hemin, the “HO-1^+ pancreatic macrophages” value [1] was “increases”, the pancreatic injury (CDD-induced pancreatitis; figure title) was “inhibition of pancreatic injury” and the “pancreas histology (edema, necrosis)” value (CDD-induced pancreatitis; hematoxylin and eosin, mice that survived CDD feeding) was “marked pancreas edema (E) and necrosis (N) in the saline (not shown) and vehicle injected mice, as compared with the “hemin” group”. For the same substance, the survival (CDD-induced pancreatitis; hemin 3× then CDD 3 d, 8 mice/group, p<0.03 vs controls (saline+vehicle)) was “survival difference was significant”.

Source: US7745402B2, “Method of treating pancreatitis” (Lundbeck Inc., priority 2005, dated 2010)
